Experimental findings from US6627657B1 (priority 2000, dated 2003) are described below.

The subject of the experiment is Zygosaccharomyces bailii ATCC 60483. The experiment is classed as cell-based. Conditions: 30 seconds. Here is the method:
The rate at which a composition of the invention killed a test organism was measured by inoculating use solutions with a test organism and then quantifying survivors after various exposure times. Ninety-nine mL of each use solution was transferred to a 250 mL Erlenmeyer flask and allowed to equilibrate to test temperature. The liquid in the flask was swirled vigorously in a rapid circular motion and 1 mL of a suspension of the test organism was added.
After the exposure time, 1 mL quantities of the use solution/test organism mixture were transferred to 9 mL of the use-solution neutralizer. One mL quantities of the neutralizer were pour-plated using the plating medium. Serial 10-fold or 100-fold dilutions of the neutralizer solution were also plated. Plates were incubated and then surviving microorganisms were counted. The Log10 reduction of the test organism due to the use solution was determined by comparing reduction to an untreated control set (referred to as the Inoculum Numbers).
The test method was carried out as described in Example 5.
To determine the antifungal activity of hydrogen peroxide and peroxyacetic independently and in combination with a quaternary ammonium compound, the following experimental perimeters were used. The test organism studied was Zygosaccharomyces bailii ATCC 60483.
The test temperature used was 25° C., and the exposure time was 30 seconds. The use-solution neutralizer used was 1% sodium thiosulfate/1% peptone/0.025% catalase (for POAA, H2O2), Chambers neutralizer (for quaternary ammonium compound), and 1:1 mixture of the above (for POAA/H2O2/quaternary ammonium compound).
The microorganisms were plated on Sabourad dextrose agar and incubated for 4 days at 26° C.

Like-named read-outs stand apart in the source and are kept apart here.

For `CCCCCCCCCC[N+](C)(C)CCCCCCCCCC.[Cl-]` [Didecyl Dimethyl Ammonium Chloride], the “Log Reduction” value (20 ppm, pH 3, 25° C.) is given as 0.00; the “Log Reduction” value (20 ppm, pH 5, 25° C.) was determined as 0.02; the “Log Reduction” value (20 ppm, pH 7, 25° C.) is listed as 0.05; the “Log Reduction” value (20 ppm, pH 9, 25° C.) is 0.18; the “Log Reduction” value (20 ppm, pH 11, 25° C.) is given as 1.69. Besides, the Survivors (20 ppm, pH 3, 25° C.) is listed as 9.4 × 10^6 cfu/ml; the Survivors (20 ppm, pH 5, 25° C.) is recorded as 7.1 × 10^6 cfu/ml; the Survivors (20 ppm, pH 7, 25° C.) is recorded as 6.6 × 10^6 cfu/ml; the Survivors (20 ppm, pH 9, 25° C.) is recorded as 4.9 × 10^6 cfu/ml; the Survivors (20 ppm, pH 11, 25° C.) was 1.5 × 10^5 cfu/ml.
As for `OO` [Hydrogen Peroxide], the “Log Reduction” value was 0.00 (532 ppm, pH 3, 25° C.); 0.00 (532 ppm, pH 5, 25° C.); 0.00 (532 ppm, pH 7, 25° C.); 0.04 (532 ppm, pH 9, 25° C.); 0.06 (532 ppm, pH 11, 25° C.). Moreover, the Survivors is 7.5 × 10^6 cfu/ml (532 ppm, pH 3, 25° C.); 9.9 × 10^6 cfu/ml (532 ppm, pH 5, 25° C.); 7.9 × 10^6 cfu/ml (532 ppm, pH 7, 25° C.); 6.8 × 10^6 cfu/ml (532 ppm, pH 9, 25° C.); 6.5 × 10^6 cfu/ml (532 ppm, pH 11, 25° C.).
